From PMC8344233, “Anticancer activity and toxicity of new quaternary ammonium geldanamycin derivative salts and their mixtures with potentiators” (Journal of Enzyme Inhibition and Medicinal Chemistry, 2021)

How the values were obtained:
HDF = test: SRB cytotoxicity assay, human dermal fibroblasts HDF; type: cell-based; conditions: 72 h, ± SD, mixtures equimolar 1:1, read-out: IC50 HDF (toxicity in normal cells)
Experimental: (§1) Medium. Human Dermal Fibroblasts cell line (HDF) was cultured in Fibroblast Basal Medium.
(§2) Each medium was supplemented with 10% fetal bovine serum, 1% L-glutamine, and 1% penicillin/streptomycin solution. The cell lines were kept in the incubator at 37◦C. The optimal plating density of cell lines was determined to be 5 × 104. All the cell lines and mediums were obtained from American Type Culture Collection (ATCC) supplied by LGC-Standards. The protein-staining SRB (Sigma-Aldrich) microculture colorimetric assay, developed by the National Cancer Institute (USA) for in vitro antitumor screening was used in this study, to estimate the cell number by providing a sensitive index of total cellular protein content, being linear to cell density. The monolayer cell culture was trypsinized and the cell count was adjusted to 5 × 10^4 cells. To each well of the 96 well microtiter plate, 0.1 mL of the diluted cell suspension (approximately […]) was added. After 24 hours, when a partial monolayer was formed, the supernatant was washed out and 100 μL of six different compound concentrations (0.1, 0.2, 1, 2, 10, and 20 μM) were added to the cells in microtitre plates. The tested compounds were dissolved in DMSO (containing 10 % of water) (100 μL) and the […]
(§3) lines. The cells were exposed to compounds for 72 hours at 37 °C in a humidified atmosphere (90% RH) containing 5% CO2. After that, 25 μL of 50 % trichloroacetic acid was added to the wells and the plates were incubated for 1 hour at 4◦C. The plates were then washed out with the distilled water to remove traces of medium and next dried by the air. The air-dried plates were stained with 100 μL of 0.4% sulforhodamine B (prepared in 1 % acetic acid) and kept for 30 minutes at room temperature. The unbound dye was removed by rapidly washing with 1% […]
(§4) acetic acid and then air dried overnight. The protein-bound dye was dissolved in 100 μL of 10 mM unbuffered Tris base (pH 10.5) for optical density determination at 490 nm. All cytotoxicity experiments were performed three times. Cell survival was measured as the percentage absorbance compared to the control (nontreated cells). Cytarabine (ara-C) and GDM were used as the internal standards. Additionally biological assays were performed in Human Dermal Fibroblasts cell line (HDF) in aim to evaluate cytotoxicity of GDM and its 1-13 analogs in healthy cells. SI indexes were calculated from equation SI = IC50 normal cell line HDF/IC50 respective cancerous cell line (Table 2). A beneficial SI > 1.0 indicates a compound with efficacy against tumor cell greater than the toxicity against normal cells. […]

cancer cell lines = test: Cytotoxicity, values summarised over several cancer cell lines; type: cell-based, human; conditions: Homo sapiens, approximate level over the three cancer cell lines; mixtures equimolar 1:1; read-out: IC50 in SKBR-3, SKOV-3 and PC-3
Experimental: Human cancer cells SKBR-3 (human breast cancer cell line) and SKOV-3 (ovarian cancer cell line) were cultured in McCoy’s Modified Medium. Human cancer cells PC-3 (human prostate cancer cell line) were cultured in F-12K medium, as well as A549 cell line (lung cancer cell line). U-87MG cells (glioblastoma cell line) were cultured in Eagle’s Minimal Essential Medium. Human Dermal Fibroblasts cell line (HDF) was cultured in Fibroblast Basal Medium.
as §2, §3
acetic acid and then air dried overnight. The protein-bound dye was dissolved in 100 μL of 10 mM unbuffered Tris base (pH 10.5) for optical density determination at 490 nm. All cytotoxicity experiments were performed three times. Cell survival was measured as the percentage absorbance compared to the control (nontreated cells). Cytarabine (ara-C) and GDM were used as the internal standards. Additionally biological assays were performed in Human Dermal Fibroblasts cell line (HDF) in aim to evaluate cytotoxicity of GDM and its 1-13 analogs in healthy cells. SI indexes were calculated from equation SI = IC50 normal cell line HDF/IC50 respective cancerous cell line (Table 2). A beneficial SI > 1.0 indicates a compound with efficacy against tumor cell greater than the toxicity against normal cells.
(§5) All experiments were carried out with human breast adenocarcinoma (MDA-MB-231 and MCF-7), hepatocellular carcinoma (HepG2), human cervical adenocarcinoma (HeLa) cancer cell lines, and human normal lung fibroblast (CCD39Lu) cell line. The cell line was purchased from the European Collection of Cells Cultures (ECACC, Salisbury, UK), and cultured in DMEM with phenol red supplemented with 10% (v/v) FBS, 1% (v/v) penicillin/streptomycin, and 1% (v/v) L-glutamine at 37 °C, in a humidified atmosphere containing 5% CO2.
(§6) The tested compounds were dissolved in DMSO to the final concentration 10 mM and stored […]
(§7) The cytotoxic effect of the tested compounds was determined by MTT assay. MDA-MB-231, MCF-7, HepG2, HeLa, and CCD39Lu cells were seeded in 96 wells plates at density 2x10^4 cells/well and incubated overnight under cell culture condition. Next, cells were treated with tested compounds at concentrations of 10 µM; 5 µM; 2.5 µM; 1.2 µM; 0.6 µM; 0.3 µM; 0.15 […]

PC-3 = test: SRB cytotoxicity assay, PC-3 (2nd panel); type: cell-based, human; conditions: for IC50: Homo sapiens, PC-3, ± SD, SRB, 72 h, mixtures equimolar 1:1; for selectivity index SIHDF (PC-3): IC50 normal cell line HDF/IC50 PC-3
Experimental: as §1, §2, §3, §4

SKOV-3 = test: SRB cytotoxicity assay, SKOV-3 (2nd panel); type: cell-based, human; conditions: for IC50: Homo sapiens, SK-OV-3, ± SD, SRB, 72 h, mixtures equimolar 1:1; for selectivity index SIHDF (SKOV-3): IC50 normal cell line HDF/IC50 SKOV-3
Experimental: (§8) Human cancer cells SKBR-3 (human breast cancer cell line) and SKOV-3 (ovarian cancer cell line) were cultured in McCoy’s Modified Medium. […]
as §1, §2, §3, §4

SKBR-3 = test: SRB cytotoxicity assay, SKBR-3 (2nd panel); type: cell-based, human; conditions: for IC50: Homo sapiens, SK-BR-3, ± SD, SRB, 72 h, mixtures equimolar 1:1; for selectivity index SIHDF (SKBR-3): IC50 normal cell line HDF/IC50 SKBR-3
Experimental: as §8, §1, §2, §3, §4

CCD39Lu = test: MTT cytotoxicity assay, normal lung fibroblasts CCD39Lu; type: cell-based; conditions: Fibroblast, ± SD, healthy human lung fibroblasts, 72 h, read-out: IC50 CCD39Lu (toxicity in normal cells)
Experimental: (§9) Cell survival was measured as the percentage absorbance compared to the control (nontreated cells). […]
(§10) SI indexes were calculated from equation SI = IC50 normal cell line HDF/IC50 respective cancerous cell line (Table 2). A beneficial SI > 1.0 indicates a compound with efficacy against tumor cell greater than the toxicity against normal cells.
as §5, §6, §7
(§11) µM. Moreover, GDM (for MCF-7) and 8 (for MCF-7 and MDA-MB-231) due to high cytotoxicity, were additionally tested at a lower concentration range of 2.5 µM; 1.2 µM; 0.6 µM; 0.3 µM; 0.15µM; 0.07 µM; 0.03 µM. DMSO was used as a control, and the concentration […]
(§12) Tested compounds were added to cells in the medium without phenol red. Cells were incubated 72 h at 37 °C in a humidified atmosphere containing 5% CO2.
(§13) Then, the medium was aspirated and MTT solution at a concentration of 0.59 mg/mL in cell culture medium was added to each well. Plates were incubated for 1.5 hours at 37 °C, and then plates were centrifuged for 3 minutes. The formazan crystals were dissolved in 200 µl DMSO and plates were agitated on a plate shaker at 300 –500 rpm for 10 minutes. Absorbance at 570 nm was measured using a plate reader (Biotek Instruments, Elx -800). Data were normalized to the mean absorption of control cells. All experiments were performed at least three times. […]

MDA-MB-231 = test: MTT cytotoxicity assay, MDA-MB-231 (1st panel); type: cell-based, human; conditions: for IC50: Homo sapiens, MDA-MB-231, ± SD, MTT, 72 h; for selectivity index SI (MDA-MB-231): IC50 normal cell line CCD39Lu/IC50 MDA-MB-231
Experimental: as §9, §10, §5, §6, §7, §11, §12, §13

MCF-7 = test: MTT cytotoxicity assay, MCF-7 (1st panel); type: cell-based, human; conditions: for IC50: Homo sapiens, MCF7, 72 h, ± SD, MTT, 72 h; for selectivity index SI (MCF-7): IC50 normal cell line CCD39Lu/IC50 MCF-7
Experimental: as §9, §10, §5, §6, §7, §11, §12, §13

HeLa = test: MTT cytotoxicity assay, HeLa (1st panel); type: cell-based, human; conditions: for IC50: Homo sapiens, HeLa, ± SD, MTT, 72 h; for selectivity index SI (HeLa): IC50 normal cell line CCD39Lu/IC50 HeLa
Experimental: as §9, §10, §5, §6, §7, §11, §12, §13

HepG2 = test: MTT cytotoxicity assay, HepG2 (1st panel); type: cell-based, human; conditions: for IC50: Homo sapiens, HepG2, ± SD, MTT, 72 h; for selectivity index SI (HepG2): IC50 normal cell line CCD39Lu/IC50 HepG2
Experimental: as §9, §10, §5, §6, §7, §11, §12, §13

physchem = conditions: water, Solubility SH2O
A-549 = test: SRB cytotoxicity assay, A-549 (2nd panel); type: cell-based, human
Experimental: as §1, §2, §3, §4

U-87 = test: SRB cytotoxicity assay, U-87 (2nd panel); type: cell-based, human
Experimental: U-87MG cells (glioblastoma cell line) were cultured in Eagle’s Minimal Essential Medium. Human Dermal Fibroblasts cell line (HDF) was cultured in Fibroblast Basal Medium.
as §2, §3, §4

Structure (SMILES) | CC50 (HDF) [µM] | IC50 (PC-3) [µM] | selectivity index SIHDF (PC-3) (PC-3) | IC50 (SKOV-3) [µM] | selectivity index SIHDF (SKOV-3) (SKOV-3) | IC50 (SKBR-3) [µM] | selectivity index SIHDF (SKBR-3) (SKBR-3) | IC50 (CCD39Lu) [µM] | IC50 (MDA-MB-231) [µM] | selectivity index SI (MDA-MB-231) (MDA-MB-231) | IC50 (MCF-7) [µM] | selectivity index SI (MCF-7) (MCF-7) | IC50 (HeLa) [µM] | selectivity index SI (HeLa) (HeLa) | IC50 (HepG2) [µM] | selectivity index SI (HepG2) (HepG2) | other results
COc1cccc2c1C(=O)c1c(O)c3c(c(O)c1C2=O)C[C@@](O)(C(=O)CO)C[C@@H]3O[C@H]1C[C@H](N)[C@H](O)[C@H](C)O1 [DOX, doxorubicin, reference compound] | 1.52 ± 0.03 | 0.68 ± 0.01 | 2.24 | 0.74 ± 0.06 | 2.05 | 0.72 ± 0.04 | 2.11 | – | – | – | – | – | – | – | – | – | IC50 (cancer cell lines): ~0.7 µM
CO[C@H]1/C=C\C=C(/C)C(=O)NC2=CC(=O)C(NC3CCN(Cc4ccccc4)CC3)=C(C[C@@H](C)C[C@H](OC)[C@H](O)[C@@H](C)/C=C(\C)[C@@H]1OC(N)=O)C2=O [Compound 5] | – | – | – | – | – | – | – | 15.3 ± 0.12 | 2.28 ± 0.54 | 6.71 | 1.84 ± 0.57 | 8.32 | 1.56 ± 0.14 | 9.81 | 1.63 ± 0.49 | 9.39 | –
CO[C@H]1/C=C\C=C(/C)C(=O)NC2=CC(=O)C(NC3C[N+]4(Cc5ccsc5Br)CCC3CC4)=C(C[C@@H](C)C[C@H](OC)[C@H](O)[C@@H](C)/C=C(\C)[C@@H]1OC(N)=O)C2=O (some centres unmarked) [Compound 12] | 13.9 ± 0.42 | 7.94 ± 0.03 | 1.75 | 8.02 ± 0.17 | 1.73 | 8.49 ± 0.36 | 1.64 | > 10 | 5.01 ± 2.15 | > 2.00 | 2.65 ± 1.09 | > 3.77 | 9.12 ± 1.81 | > 1.10 | > 10 | > 1 | solubility (physchem): 4500 µg/mL; IC50 (A-549; Homo sapiens, A549, ± SD, SRB, 72 h): 8.94 ± 0.27 µM; selectivity index SIHDF (A-549) (A-549; IC50 normal cell line HDF/IC50 A-549): 1.56; IC50 (U-87; Homo sapiens, U-87 MG, ± SD, SRB, 72 h): 8.58 ± 0.19 µM; selectivity index SIHDF (U-87) (U-87; IC50 normal cell line HDF/IC50 U-87): 1.62
CO[C@H]1/C=C\C=C(/C)C(=O)NC2=CC(=O)C(NC3CCN(S(C)(=O)=O)CC3)=C(C[C@@H](C)C[C@H](OC)[C@H](O)[C@@H](C)/C=C(\C)[C@@H]1OC(N)=O)C2=O [Compound 7] | – | – | – | – | – | – | – | 12.6 ± 0.21 | 2.36 ± 0.35 | 5.34 | 0.96 ± 0.51 | 13.13 | 1.61 ± 0.61 | 7.83 | 1.68 ± 0.32 | 7.50 | –
